Active and inactive are the calls of the source. No rule for the calls is given here.
Assay: modifiers of cytoskeleton assembly, confirmation, imaging, high-content imaging, retest and dose response (AID 1249);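 also: compound exposure lasted 24 h before fixation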;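 as to inhibition: plate controls were untreated cells for no effect and reference compound treated cells for full effect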
Details: cell-based imaging, cytoskeleton assembly phenotype, high content; at 2 µM; stronger effect = higher value

SMILES	inhibition
COc1ccccc1-n1cnc2cc(C(=O)NCC3CCCO3)ccc21 (configuration not stated)	13.3% (inactive)
O=[N+]([O-])/C=C/c1c(OCc2ccccc2)ccc2ccccc12	-14.2% (inactive)
CC(=O)c1ccc(Oc2cc(C)nc(-n3nc(C)cc3C)n2)cc1	11% (inactive)
COc1ccc(CN2C(=O)[C@@H]3C(c4ccc(F)cc4)=NO[C@@H]3C2=O)cc1	6.5% (inactive)
O=C(CS(=O)c1ccc(C(F)(F)F)cc1[N+](=O)[O-])Oc1ccc(Cl)cc1 (configuration not stated)	5.2% (inactive)
CCN1CCN(C(=O)CN(CCc2ccccc2)S(C)(=O)=O)CC1	-9.3% (inactive)
CCCc1nnc(SCC(=O)O)n1/N=C/c1ccc2c(c1)OCO2	-4.9% (inactive)
CCn1c(SCC(=O)N2CCN(c3cccc(Cl)c3)CC2)nc2ccccc2c1=O	-3.6% (inactive)
Cc1ccc(OCC(O)CN2CCN(CC(O)COc3ccc(C)cc3)CC2)cc1 (configuration not stated)	10.9% (inactive)
CC(=O)c1cccc(NC(=O)c2cc(-c3ccc(F)cc3)on2)c1	0.8% (inactive)
CC(CCc1ccccc1)NC(=O)c1ccc(Br)o1 (configuration not stated)	-0.1% (inactive)
COc1cc2c(O)c3c(c(-c4ccc5c(c4)OCO5)c2cc1OC)C(=O)OC3	1.5% (inactive)
CCC(=O)Nc1nc(-c2ccccc2)ns1	-1.3% (inactive)
CCCc1nc(SCC(=O)N2CCc3ccccc32)c2c(C)c(C)sc2n1	2.2% (inactive)
O=C1c2cccc3c([N+](=O)[O-])ccc(c23)C(=O)N1c1ccc(Cl)cn1	-13.4% (inactive)
CCOC(=O)c1cnc(-n2nc(C)cc2C)nc1N1CCOCC1	8.4% (inactive)
O=C1CC(N2CCN(Cc3ccc4c(c3)OCO4)CC2)C(=O)N1Cc1ccc(N2CCCC2=O)cc1 (configuration not stated)	-1.8% (inactive)
O=C(Nc1ccccc1)/C(=C\c1ccc2c(c1)OCO2)NC(=O)c1ccco1	-0.8% (inactive)
Cc1ccc(-c2cc(C(=O)NCc3ccccn3)no2)cc1	3.6% (inactive)
O=C1C(Cc2ccccc2)NC(=S)N1c1ccccc1 (configuration not stated)	3.1% (inactive)
O=C(c1ccc([N+](=O)[O-])cc1)N(Cc1ccc(Cl)cc1)N1C(=O)CCCC1=O	-0.3% (inactive)
O=C(NCc1ccco1)C1CC(=O)N(c2ccc(F)cc2)C1 (configuration not stated)	2.5% (inactive)
COc1ccccc1-c1cc(C(F)(F)F)nc(S(=O)(=O)CCCC(=O)N2CCCCC2C)n1 (configuration not stated)	7.4% (inactive)
Cc1cc(C(=O)CSc2nnc(-c3ccc(F)cc3)o2)c(C)n1CC1COc2ccccc2O1 (configuration not stated)	-0.5% (inactive)

SMILES	inhibition
CCn1c(SCC(=O)NC(C)c2ccccc2)nc2ccccc21 (configuration not stated)	0.7% (inactive)
CCOC(=O)N1CCN(C(=O)COc2ccc(Cl)cc2C)CC1	0.3% (inactive)
COc1ccc(OC)c(C2CC(=O)c3c([nH]c(C(=O)OC(C)C)c3C)C2)c1 (configuration not stated)	8.4% (inactive)
COc1ccc(-c2nnc(SCC(=O)NC3CCCCC3)o2)cc1OC	-3.7% (inactive)
CC(C)(CO)NC(=O)CCCOc1ccc(Cl)cc1Cl	-0.1% (inactive)
COc1ccc(-c2cc(C(F)(F)F)nc(S(=O)(=O)CCC(=O)N3CCOCC3)n2)cc1	0% (inactive)
COc1ccc(/C=N/NC(=O)c2ccccc2Cl)cc1CSc1nc2ccccc2s1	-6.6% (inactive)
O=S(=O)(C/C(=C/CO)S(=O)(=O)c1ccccc1)c1ccccc1	-4.1% (inactive)
O=C(CCN1C(=O)C2C3C=CC(C3)C2C1=O)NCC1CCCO1 (configuration not stated)	9.9% (inactive)
CCCOC(=O)C1C2C=C[C@]3(CN(CCc4ccccc4)C(=O)[C@H]13)O2 (some centres not stated)	-9.4% (inactive)
COc1cccc(OC)c1NC(=O)CN1CCC(NC(=O)c2cccc(F)c2)CC1	0.4% (inactive)
COC(=O)c1ccc(-n2nnnc2SCC(=O)N2CCCCC2)cc1	3.1% (inactive)
Nc1ccc2c3c(cccc13)CC2	-5.4% (inactive)
Cc1cc(C)cc(OCCCCCNCCO)c1	-6.8% (inactive)
Cn1c(NCc2c[nH]c3ccccc23)nc2ccccc21	-13.6% (inactive)
COc1ccc(OC)c(N(CC(=O)Nc2ccccc2)S(C)(=O)=O)c1	16.3% (inactive)
O=C(Oc1csc(=S)n1C(=O)c1ccccc1)c1ccccc1	-3% (inactive)
N=C1C(c2nc3ccccc3s2)=C(O)CN1Cc1ccco1	5.2% (inactive)
COc1cc2c3c(c1OC)-c1cc(O)ccc1CC3NCC2 (configuration not stated)	-1.7% (inactive)
O=C(COc1ncnc2sccc12)Nc1ccc2c(c1)OCCO2	1.1% (inactive)
O=C1CC(c2ccccc2)Cc2nc3ncnn3cc21 (configuration not stated)	2.1% (inactive)
Cc1ccc(N/N=C/c2ccc(N3CCOCC3)cc2)cc1C	-7.8% (inactive)
Cn1cccc1C(=O)OCC(=O)Nc1cc(C(C)(C)C)nn1-c1ccccc1	-17.7% (inactive)
Cc1cccc(N(CC(=O)N/N=C/c2ccc(OCC(=O)NCc3ccco3)cc2)S(C)(=O)=O)c1C	-6.2% (inactive)

SMILES	inhibition
Cc1nc([N+](=O)[O-])c(Br)n1CC(=O)c1ccc(Br)cc1	-7.3% (inactive)
COCCCNC(=S)NC1CC2CCCC(C1)N2Cc1ccco1 (configuration not stated)	4.7% (inactive)
CC(=O)c1cccc(NC(=O)NCc2cccnc2)c1	12.9% (inactive)
Cc1nc(NC(C)C)c2oc3ccccc3c2n1	4.2% (inactive)
CC(=O)c1cccc(S(=O)(=O)N2CCC(n3nnc4cc(F)ccc43)CC2)c1	6.4% (inactive)
NC(=S)N/N=C/c1ccc(-c2cc(Cl)ccc2Cl)o1	-7.4% (inactive)
Cc1cc(/C=C2\SC(=Nc3ccc(F)cc3)NC2=O)c(C)n1-c1ccc(S(N)(=O)=O)cc1	-17.9% (inactive)
COc1cc2c(cc1OC)/C(=C/C#N)NC(C)(C)C2	1.8% (inactive)
CCc1nc2oc3ccccc3c(=O)c2c(=O)n1CCOC	1.7% (inactive)
COc1ccc(S(=O)(=O)Nc2nc3n(n2)C(c2ccc(Cl)cc2)CC(=O)N3)cc1 (configuration not stated)	4.9% (inactive)
Cc1cc(C)n(-c2nc3ccccc3nc2N2CCN(C(=O)c3ccc(Cl)cc3)CC2)n1	-2.4% (inactive)
Cc1cc(C)n(-c2nc(-c3cccc(Cl)c3)cs2)n1	-10.2% (inactive)
O=C(CN1CCSCC1)N1CCc2[nH]c3ccc(Br)cc3c2C1	5.8% (inactive)
Cc1ccc(OCC(=O)N2CCN(C(=O)Cc3ccccc3)CC2)cc1	-4.3% (inactive)
Cc1ccc(C(=O)NCCCn2ccnc2)cn1	1.3% (inactive)
COc1cccc(C(=O)Nc2cccc(-c3nc4ncccc4o3)c2C)c1	1.2% (inactive)
CC(C)CCN1CC(C(=O)NCCC2=CCCCC2)CC1=O (configuration not stated)	-12.9% (inactive)
O=C(Nc1cccnc1)c1coc(=O)c2ccccc12	8% (inactive)
CC(=O)Nc1ccc(NC2(C)C(=O)c3ccccc3C2=O)cc1	0.7% (inactive)
CCCC(=O)Nc1ccc(Cl)c(NC(=O)CC)c1	-2% (inactive)
CN1Cc2cc(C(=O)c3cc(Cl)cc(CSc4ncccn4)c3O)cnc2NC1=O	10.6% (inactive)
CCn1c(CN2CCN(c3ccc(Cl)cc3)CC2)nc2ccccc21	-1% (inactive)
CC(=O)c1c(C(C)=O)c(C)n(NC(=O)c2ccccc2O)c1C	-15.8% (inactive)
CC1Oc2ccccc2C=C1/C=C1/SC(N2CCOCC2)=NC1=O (configuration not stated)	-1.2% (inactive)

SMILES	inhibition
CC1(C)CC(=O)c2cc(OCC(=O)NCCCN3CCN(c4ccc(F)cc4)CC3)ccc2O1	8.9% (inactive)
CS(=O)(=O)N(CC(=O)NCc1ccccc1Cl)Cc1ccccc1	0% (inactive)
CC1=C([N+](=O)[O-])C(c2ccccc2)C2=C(N1)c1ccccc1C2=O (configuration not stated)	8.7% (inactive)
COc1cc(/C=N/NC(=O)Nc2ccccc2)ccc1OCCOc1ccccc1C	3.1% (inactive)
O=[N+]([O-])c1ccc(Sc2nc3ccccc3o2)c([N+](=O)[O-])c1	4.3% (inactive)
CCC(=O)N1c2ccc(S(=O)(=O)CCC(=O)N3CCn4c3nc3ccccc34)cc2CC1C (configuration not stated)	0% (inactive)
CCOc1ccc(NC(=O)C2CCN(C(=O)NC3CCCCC3)CC2)cc1	-1.9% (inactive)
Cc1cccc(C(=O)Oc2ccccc2C2C[C@]3(C)CC(=O)NC3N2C(=O)c2cccc(C)c2)c1 (some centres not stated)	-5.8% (inactive)
O=C(O)c1cccc(S(=O)(=O)Nc2ccccc2Cl)c1	-2.5% (inactive)
CCC(C)Oc1cccc(OCCCCN2C(=O)NC(C)(C)C2=O)c1 (configuration not stated)	-13.9% (inactive)
Cn1cc([N+](=O)[O-])c(C(=O)Nc2ccc3c(c2)OCCO3)n1	-7.4% (inactive)
Clc1ccc(-n2ncc3c(NCc4ccc5c(c4)OCO5)ncnc32)cc1	2.6% (inactive)
COCCNC(=O)C(c1cccs1)N(Cc1cccs1)C(=O)Cn1nnc2ccccc21 (configuration not stated)	-4.6% (inactive)
COc1cc(C(=O)Nc2ccc(S(=O)(=O)NC(C)(C)C)cc2)cc(OC)c1OC	-3.5% (inactive)
CN(Cc1ccccc1)S(=O)(=O)c1ccc(NC(=S)NC(=O)C2CCCC2)cc1	-1.4% (inactive)
CCc1cccc(CC)c1NC(=O)C1SC(=Nc2ccccc2C)C(c2nc3ccccc3s2)=C1N (configuration not stated)	5% (inactive)
CCn1c(=O)c2c(n3cnnc13)-c1ccccc1CC21CCCCC1	5.6% (inactive)
COc1cc(/C=N/Nc2snc(SC)c2C#N)ccc1O	-6.6% (inactive)
CCOc1cc(/C=C2/C(=O)N(c3ccccc3)N=C2C)ccc1OC(=O)c1ccco1	4.7% (inactive)
COc1ccc(NC(=O)N(Cc2ccc3c(c2)OCO3)C2CC(=O)N(c3ccc(OC)cc3)C2=O)cc1 (configuration not stated)	-22.4% (inactive)
OCCCCNc1cccc2ccccc12	-7.2% (inactive)
COc1ccc(Oc2cc(NC(=O)c3nn(C)cc3[N+](=O)[O-])cc([N+](=O)[O-])c2)cc1	11.6% (inactive)
O=C(OCn1ncc(Br)c(Br)c1=O)c1ccc(F)cc1	10.9% (inactive)
COc1ccc(C)cc1S(=O)(=O)Nc1cccc(SC)c1	3.7% (inactive)

Same assay, conditions: cell-based imaging, cytoskeleton assembly phenotype, high content; cell count; at 10 µM; stronger effect = lower value

SMILES	cell count [%]
COCCOC(=O)c1[nH]c2c(c1C)C(=O)CC(c1ccccc1)C2 (configuration not stated)	56

Reference: PubChem BioAssay AID1249 (Columbia University Molecular Screening Center, 2008)
